In paper PMC6614805 (2019):
Values belong to the molecule of their own block, whether it stands above or below them.

Legend:
[1] = tested on: SCA2.1 (DNA, aptamer) CTTACGACCTTAAGTGGGGTTCGGGTGGAGTTTATGGGGTCGTAAG; experiment: Cy7 displacement, absorbance A670/A775; conditions: Cy7 (2 µM) displaced from 3 µM SCA2.1
[2] = tested on: SCA2.1 (DNA, aptamer) CTTACGACCTTAAGTGGGGTTCGGGTGGAGTTTATGGGGTCGTAAG; experiment: ITC; conditions: 20 mM NaCl, 0.5 mM MgCl2, 10 mM Tris-HCl pH 7.4, 23 °C; for KD: pure enantiomer, one-site model; for KD1: racemate, modified two-site model, site 1 of 2 (one enantiomer)
[3] = tested on: SCA2.1 (DNA, aptamer) CTTACGACCTTAAGTGGGGTTCGGGTGGAGTTTATGGGGTCGTAAG; experiment: absorbance titration at 775 nm; conditions: 20 mM NaCl, 0.5 mM MgCl2; 10 mM Tris-HCl pH 7.4, 0.01% Tween 20, 1% DMSO, room temperature; 2 µM Cy7
[4] = highest concentration tested 50 µM

SMILES: CC(=O)Nc1ccc(O)cc1
binding [1, 4]: no

SMILES: CCCC(C(=O)c1ccc2c(c1)OCO2)N1CCCC1 (stereo not drawn)
KD [2]: 3610 ± 120 nM

SMILES: CCCC(C(=O)c1ccc2ccccc2c1)N1CCCC1 (stereo not drawn)
binding ([1]; 50 µM compound): yes

SMILES: CCN(CC)CC(=O)Nc1c(C)cccc1C
binding [1, 4]: no

SMILES: CNC(C)C(=O)c1ccc(C)cc1 (stereo not drawn)
binding ([1]; 50 µM compound): yes

SMILES: CNC(C)C(=O)c1ccc2c(c1)OCO2 (stereo not drawn)
binding ([1]; 50 µM compound): yes

SMILES: CNC(C)C(=O)c1ccccc1 (stereo not drawn)
binding ([1]; 50 µM compound): yes

SMILES: CN[C@@H](C)[C@@H](O)c1ccccc1
binding [1, 4]: no

SMILES: Cn1c(=O)c2c(ncn2C)n(C)c1=O
binding [1, 4]: no

SMILES: CCC(NC)C(=O)c1ccc2c(c1)OCO2 (racemic)
KD1 [2]: 0.16 ± 0.05 µM

SMILES: CCNC(C)C(=O)c1ccc2c(c1)OCO2 (racemic)
KD1 [2]: 0.10 ± 0.03 µM

Next, values leading:

binding ([1]; 50 µM compound): yes
SMILES: CCCC(NC)C(=O)c1ccc2c(c1)OCO2 (stereo not drawn)

KD [2]: 46.5 ± 7.5 nM
SMILES: CCC[C@H](C(=O)c1ccc2c(c1)OCO2)N1CCCC1

KD [3]: 1600 nM
SMILES: CCN1C(=CC=CC=CC=Cc2sc3ccccc3[n+]2CC)Sc2ccccc21

binding [1, 4]: no
SMILES: CCOC(=O)c1ccc(N)cc1

binding ([1]; 50 µM compound): yes
SMILES: CNC(C)C(=O)c1ccc(F)cc1 (stereo not drawn)

binding ([1]; 50 µM compound): yes
SMILES: CNC(C)C(=O)c1cccc(F)c1 (stereo not drawn)

binding ([1]; 50 µM compound): yes
SMILES: C[C@H](N)C(=O)c1ccccc1

binding [1, 4]: no
SMILES: OC[C@H]1O[C@@](CO)(O[C@H]2O[C@H](CO)[C@@H](O)[C@H](O)[C@H]2O)[C@@H](O)[C@@H]1O

KD1 [2]: 0.0175 ± 0.0164 µM
SMILES: CCCC(C(=O)c1ccc2c(c1)OCO2)N1CCCC1 (racemic)

KD1 [2]: 0.09 ± 0.02 µM
SMILES: CCCC(C(=O)c1ccccc1)N1CCCC1 (racemic)
